Assay results as given in EP4324461A1, “(E)-N-CINAMOYLAMINOALKANOLES WITH MELANOGENESIS INHIBITORY ACTIVITY” (UNIWERSYTET JAGIELLONSKI, priority 2022, dated 2024).
pIC50: −log10 of the molar value. Several values for one entry are separate records, joined by “and”; a condition that tells them apart may be missing. Equal entries are not always repeated. Where two headings read alike, the source gives them in different places.

Assays:
[1] = Lipophilicity coefficient RM0 by reversed phase thin layer chromatography; type: physicochemical; conditions: RP-18 TLC, methanol / 100 mM phosphate buffer pH = 7.4
Procedure: Confirmation of the identity and purity of the obtained compounds consisted in the registration and interpretation of ^1H NMR and ^13C NMR spectra (the spectra were recorded using an ECZR 500 MHz (JEOL) series FT-NMR spectrophotometer), as well as the registration and interpretation of LC-MS spectra (the spectra were recorded using Acquita UPLC system (Waters) coupled with a Waters TQD mass spectrometer). The melting point was measured using the open capillary method in the IA9300 device (Electrothermal). The lipophilicity coefficient RM0 was determined by reversed phase thin layer chromatography. In the study, aluminum plates 20x20 cm covered with modified silica gel RP-18 F254 (Merck) were used as the solid phase. The mobile phase consisted of solutions of methanol and 100 mM phosphate buffer (pH = 7.4), characterized by a variable methanol content ranging from 95 to 65% (v/v). The tested compounds were dissolved in methanol to obtain solutions with a concentration of 1 mg/mL. Then, 5 µL of the solutions prepared in this way were transferred to the starting line on aluminum plates, which were then placed in chromatographic chambers previously saturated with mobile phase vapors for at least 1 hour. All activities, including the development of chromatograms, were carried out at room temperature. After developing the chromatograms to approximately 1-2 cm from the end of the plate, the plates were dried and then the distance traveled by the tested compounds was visualized under UV light (λ = 254 nm). The experiment was performed in duplicate for the specified conditions. For all samples, Rf was calculated according to the formula Rf = a/b, where a - the distance traveled by the tested compound, b - the distance traveled by the mobile phase. Then, the RM parameter was calculated for all samples according to the formula RM = log(1/Rf - 1), obtaining a linear relationship between the RM values and the methanol concentration in the mobile phase. The logP coefficient was also calculated using the following computer programs: ACD/ChemSketch 2020.1.2 and ChemDraw 20.0.0.41. Table 2. The physicochemical data of the compounds are presented below

tyrosinase from mushroom = assay: Inhibition of commercial mushroom tyrosinase (L-DOPA or L-tyrosine substrate); type: biochemical
Procedure: The following substrates were used for the enzymatic reaction: L-tyrosine and L-3,4-dihyroxyphenylalanine (L-DOPA). Both substrates were used in independent experiments. According to the literature, the use of L-DOPA enables the assessment of tyrosinase diphenolase activity, and L-tyrosine - the tyrosinase monophenolase activity. The determinations were performed in 96-well plates, in each well there was placed: 170 µL or 127.5 µL of 50 mM phosphate buffer (pH = 6.8) with tyrosinase (1U/well or 3U/well) and 10 µL of a solution of the tested compound in DMSO (the final concentration in the well was 500 µM, 250 µM or 125 µM). The negative control used 10 µL of pure solvent (DMSO). To initiate the reaction, an appropriate substrate was added: L-tyrosine (62.5 µL of solution in phosphate buffer) or L-DOPA (20 µL of solution in phosphate buffer). After a 25-minute incubation, the absorbance was measured at 475 nm using a microplate reader. The percentage of inhibition of tyrosinase activity was calculated using the formula: [(AC -AT)/AC] × 100, where AC - is the absorbance of the negative control, AT - is the absorbance of the sample containing the tested compound.

[2] = system: B16-F10 murine melanoma cell line; assay: Cytotoxicity in B16-F10 cells (MTT); type: cell-based; conditions: 48 h
Procedure: In order to determine safe doses of compounds for testing the inhibition of melanogenesis in a murine melanoma cell line, cytotoxicity tests were performed. Cytotoxicity was determined by the colorimetric method using MTT ([3-(4,5-dimethyl-2-thiazolyl)-2,5-diphenyl-2H-tetrazolium bromide, Sigma M5655). For this purpose, cells were transferred to 96-well plates in an amount of 5000/well. After 24 h of culture in an incubator in F 10-Ham medium with 1% FBS, the tested compounds at various concentrations were added to the wells together with fresh medium. DMSO was added to the medium in a negative control. The MTT test was performed after further culture for 48 h. Then the medium was removed and the formed formazan crystals were dissolved in DMSO. The absorbance was measured at 570 nm in a plate reader and the result was compared to the control (DMSO), which was 100%. The percentage of viability was calculated using the formula: [AT/AC^∗100], where AT is the absorbance of the test sample, AC - absorbance of the control sample. Table 3. Results of inhibiting the activity of monophenolase […] tyrosinase and cytotoxicity testing in B16F10 cells for the described compounds.

S. typhimurium TA100 = assay: Ames microplate test, TA100; type: cell-based, Salmonella typhimurium; conditions: positive control (PC), 125 µg/mL, +S9;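 also: reference level is the mean solvent-control yellow wells plus SD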
Procedure: (§1) Bacteria were grown overnight in growth medium.
(§2) Table 9. Ames microplate test results.

S. typhimurium TA98 = assay: Ames microplate test, TA98; type: cell-based, Salmonella typhimurium; conditions: positive control (PC), 0.5 µg/mL, +S9;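 also: reference level is the mean solvent-control yellow wells plus SD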
Procedure: as §1, §2

[3] = L-DOPA, read-out: Tyrosinase inhibition with L-DOPA, IC50
[4] = L-tyrosine, read-out: Tyrosinase inhibition with L-tyrosine, IC50

Row | RM0 [1] | Tyrosinase inhibition with L-DOPA [%] (tyrosinase from mushroom; L-DOPA) | Tyrosinase inhibition with L-tyrosine [%] (tyrosinase from mushroom; L-tyrosine) | Tyrosinase inhibition with L-DOPA [%] (tyrosinase from mushroom; L-DOPA, concentration not given) | pIC50 (tyrosinase from mushroom; [3]) | pIC50 (tyrosinase from mushroom; [4]) | Tyrosinase inhibition with L-DOPA [%] (tyrosinase from mushroom; L-DOPA, 125 µM) | Tyrosinase inhibition with L-tyrosine [%] (tyrosinase from mushroom; L-tyrosine, 125 µM) | Structure (SMILES) | Cytotoxicity study in B16F10 cells % viability ([2]; 150 µM) | Cytotoxicity study in B16F10 cells % viability ([2]; 200 µM) | Cytotoxicity study in B16F10 cells % viability ([2]; 250 µM) | Increase in the number of yellow wells compared to the reference level (S. typhimurium TA100) | Increase in the number of yellow wells compared to the reference level (S. typhimurium TA98)
1 | 2.78 | 11.16±2.78 (500 µM) % | 20±2.96% (500 µM) |  |  |  |  |  | O=C(/C=C/c1ccc(Cl)cc1Cl)NCCCCO [H-298/20, (2E)-3-(2,4-dichlorophenyl)-N-(4-hydroxybutyl)prop-2-enamide] | 46.5% | 40.6% | 37.4% |  | 
2 | 2.80 | 7.23±0.81% (500 µM) | 19.24±3.44% (500 µM) |  |  |  |  |  | O=C(/C=C/c1ccc(Cl)cc1Cl)N1CCC(O)CC1 [H-310/20, (2E)-3-(2,4-dichlorophenyl)-1-(4-hydroxypiperidin-1-yl)prop-2-en-1-one] | 89.5% | 100.4% | 93.0% |  | 
3 | 2.27 | 16.89±7.94% (500 µM) | 20.43±2.09% (500 µM) |  |  |  |  |  | Cc1ccc(/C=C/C(=O)NCCCCO)cc1 [H-411/21, (2E)-N-(4-hydroxybutyl)-3-(4-methylphenyl)prop-2-enamide] | 50.6% | 34.9% | 41.2% |  | 
4 | 2.49 | 21.81±2.31% (500 µM) | 15.31±8.27% (500 µM) |  |  |  |  |  | CCC(CO)NC(=O)/C=C/c1ccc(C)cc1 (stereo not shown) [H-409/21, (2E)-N-(1-hydroxybutan-2-yl)-3-(4-methylphenyl)prop-2-enamide] | 83.2% | 95.3% | 103.4% |  | 
5 | 3.02 |  |  |  |  |  | 30.66±1.82% (125 µM) | 39.89±3.21% (125 µM) | O=C(/C=C/c1ccc(Cl)cc1)NCCCCCCO [H-426/21, (2E)-3-(4-chlorophenyl)-N-(6-hydroxyhexyl)prop-2-enamide] | 30.3% | 28.2% | 28.3% |  | 

The next lines start with the compound.

Row | Structure (SMILES) | RM0 [1] | Tyrosinase inhibition with L-DOPA [%] (tyrosinase from mushroom; L-DOPA) | Tyrosinase inhibition with L-tyrosine [%] (tyrosinase from mushroom; L-tyrosine) | Tyrosinase inhibition with L-DOPA [%] (tyrosinase from mushroom; L-DOPA, concentration not given) | pIC50 (tyrosinase from mushroom; [3]) | pIC50 (tyrosinase from mushroom; [4]) | Tyrosinase inhibition with L-DOPA [%] (tyrosinase from mushroom; L-DOPA, 125 µM) | Tyrosinase inhibition with L-tyrosine [%] (tyrosinase from mushroom; L-tyrosine, 125 µM) | Cytotoxicity study in B16F10 cells % viability ([2]; 150 µM) | Cytotoxicity study in B16F10 cells % viability ([2]; 200 µM) | Cytotoxicity study in B16F10 cells % viability ([2]; 250 µM) | Increase in the number of yellow wells compared to the reference level (S. typhimurium TA100) | Increase in the number of yellow wells compared to the reference level (S. typhimurium TA98)
6 | O=C(/C=C/c1ccc(Cl)cc1Cl)NCCCO [H-296/20, (2E)-3-(2,4-dichlorophenyl)-N-(3-hydroxypropyl)prop-2-enamide] | 2.11 | 18.63±1.67% (500 µM) | 17.87±7.36% (500 µM) |  |  |  |  |  | 67.0% | 57.0% | 38.3% |  | 
7 | Cc1ccc(/C=C/C(=O)NC(C)CO)cc1 (stereo not shown) [Compound A-69, (2E)-N-(1-hydroxypropan-2-yl)-3-(4-methylphenyl)prop-2-enamide] | 2.17 | 22.96±6.64% (500 µM) | 4.40±7.15% (500 µM) |  |  |  |  |  | 96.6% | 101.3% | 97.5% |  | 
8 | Nc1ccc2cc3ccccc3cc2c1 [Compound 2-AA, 2-aminoanthracene, reference compound] |  |  |  |  |  |  |  |  |  |  |  | 4.00 | 24.00 and 15.03
9 | O=C(/C=C/c1ccc(Cl)cc1)N1CCC(O)CC1 [Compound A-99, (2E)-3-(4-chlorophenyl)-1-(4-hydroxypiperidin-1-yl)prop-2-en-1-one] | 2.27 |  | 75.14±1.60% (500 µM) | 54.87±1.47% | 3.35 | 3.75 |  |  | 109.8% | 102.6% | 96.6% |  | 
10 | O=C(/C=C/c1ccc(Cl)cc1Cl)NCCCCCO [H-297/20, (2E)-3-(2,4-dichlorophenyl)-N-(5-hydroxypentyl)prop-2-enamide] | 3.08 | 20.53±2.84% (500 µM) | 19.09±2.53% (500 µM) |  |  |  |  |  | 102.3% | 73.6% | 88.5% |  | 
11 | O=C(/C=C/c1ccccc1)NCCCCO [Compound A-43, (2E)-N-(4-hydroxybutyl)-3-phenylprop-2-enamide] | 1.60 | 34.55±4.18% (500 µM) | 35.50±1.37% (500 µM) |  | 2.81 | 2.99 |  |  | 108.9% | 105.7% | 103.2% |  | 
12 | CC(C)C(CO)NC(=O)/C=C/c1ccc(Cl)cc1 (stereo not shown) [Compound A-106, (2E)-3-(4-chlorophenyl)-N-(1-hydroxy-3-methylbutan-2-yl)prop-2-enamide] | 2.76 | 41.17±0.81% (500 µM) | 57.62±2.11% (500 µM) |  | 3.04 | 3.39 |  |  | 85.9% | 88.1% | 72.6% |  | 
13 | CCC(CO)NC(=O)/C=C/c1ccc(Cl)cc1Cl (stereo not shown) [H-285/20, (2E)-3-(2,4-dichlorophenyl)-N-(1-hydroxybutan-2-yl)prop-2-enamide] | 3.08 | 0.21±5.64% (500 µM) | 14.56±1.63% (500 µM) |  |  |  |  |  | 84.2% | 74.8% | 24.6% |  | 
14 | CCC(O)CNC(=O)/C=C/c1ccc(C)cc1 (stereo not shown) [Compound A-63, (2E)-N-(2-hydroxybutyl)-3-(4-methylphenyl)prop-2-enamide] | 2.39 | 21.19±1.26% (500 µM) | 30.22±10.22% (500 µM) |  |  |  |  |  | 90.2% | 87.3% | 87.4% |  | 
15 | CCC(CO)NC(=O)/C=C/c1ccc(Cl)cc1 (stereo not shown) [Compound A-01, (2E)-3-(4-chlorophenyl)-N-(1-hydroxybutan-2-yl)prop-2-enamide] | 2.43 | 43.99±2.60% (500 µM) | 61.80±0.40% (500 µM) |  | 3.13 | 3.55 |  |  | 73.6% | 93.2% | 85.4% |  | 
